Measured values reported in patent US20250346600A1, “TRICYCLIC DERIVATIVES AND RELATED USES” (MOMA Therapeutics, Inc., priority 2023, published 2025).

Legend:
[1] = target: T1, Full length WRN protein (aa 2-1432) (Homo sapiens (Human), UniProt Q14191); experiment: WRN ATPase ADP-Glo biochemical assay, Assay Format A (10 μM ATP); conditions: 0.25 nM WRN, 100 nM C6.18 ssDNA, 30 min preincubation, read-out: ATPase ADPGlo AC50 (uM)- Assay Format A
Source text: Full length Werner helicase construct (Uniprot: Q14191) with an N-terminal FLAG-AVI-TEV tag was expressed using the Sf9 cell/baculovirus expression system. The harvested cell pellet was resuspended and lysed in a glass homogenizer. After insoluble material was removed by centrifugation, the helicase protein was first purified with FLAG affinity resin and then further purified through a size-exclusion chromatography column. Peak fractions containing the purified protein were concentrated, split into aliquots and frozen in liquid nitrogen to be thawed before use. Biochemical Assay Description (ATPase activity)-Assay Format A WRN activity was measured using an ATPase assay. Full length WRN protein (aa 2-1432) (production described separately) was used for the biochemical activity assays. The 39-mer ssDNA “C6.18” [NT] was purchased from IDT and used as a substrate. Quantification of ATP hydrolysis was evaluated using the ADP-Glo assay kit (Promega, Madison, WI). An enzyme titration time-course was performed to determine the optimal assay conditions. […] To evaluate the inhibitory effects of the compounds, 11-point 3-fold serial dilutions were prepared in DMSO. 50 nL of each concentration in duplicate was preincubated for 30 minutes in a 384-well microplate (Greiner #784075) with 5 μL of 0.5 nM WRN in assay buffer. The reaction was initiated by adding 5 μL of 200 nM C6.18 DNA with 20 μM ATP and was allowed to proceed for 30 minutes at room temperature. The reaction was stopped with 10 μL ADP-Glo reagent for 1 hour to remove unreacted ATP. Lastly, 20 μL ATP detection reagent was added and incubated for 1 hour to generate the luminescence signal. Control wells included “high controls” with no inhibition (DMSO, no compound) and “low controls” with maximum inhibition (no WRN). Luminescence was recorded on a PHERAstar (BMG Labtech, Ortenberg, Germany). Data was fit using the “Smart Fit” method within the Genedata Screener Software (Basel, Switzerland) to obtain IC50 values using four-parameter fits. Reported IC50s are the geometric means of at least two independent trials.

[2] = target: T1, Full length WRN protein (aa 2-1432); experiment: WRN ATPase ADP-Glo biochemical assay, Assay Format B (100 μM ATP); conditions: 0.25 nM WRN, 100 nM C6.18 ssDNA, 60 min preincubation, read-out: ATPase ADPGlo AC50 (uM)- Assay Format B
[3] = tested on: HCT116 cells; experiment: HCT116 (MSI) 7 day viability, CellTiter Glo; assay type: cell-based; conditions: Homo sapiens, HCT-116, 168 h, 7 days, read-out: HCT116 (MSI) Viability 7 Day Abs AC50
In short: (§1)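 Seven-day viability is assessed with CellTiter Glo after compounds, diluted in ten 3-fold steps in DMSO, are exposed to HCT116 (50 cells/well) or HT29 (500 cells/well). Reported IC50 is the geometric mean of at least two independent runs.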

[4] = tested on: HT29 cells; experiment: HT29 (MSS) 7 day viability, CellTiter Glo; assay type: cell-based; conditions: Homo sapiens, HT-29, 168 h, 7 days, read-out: HT29 (MSS) Viability 7 Day CTGAbs AC50
In short: as §1

T1 sequence (Q14191 2-1432): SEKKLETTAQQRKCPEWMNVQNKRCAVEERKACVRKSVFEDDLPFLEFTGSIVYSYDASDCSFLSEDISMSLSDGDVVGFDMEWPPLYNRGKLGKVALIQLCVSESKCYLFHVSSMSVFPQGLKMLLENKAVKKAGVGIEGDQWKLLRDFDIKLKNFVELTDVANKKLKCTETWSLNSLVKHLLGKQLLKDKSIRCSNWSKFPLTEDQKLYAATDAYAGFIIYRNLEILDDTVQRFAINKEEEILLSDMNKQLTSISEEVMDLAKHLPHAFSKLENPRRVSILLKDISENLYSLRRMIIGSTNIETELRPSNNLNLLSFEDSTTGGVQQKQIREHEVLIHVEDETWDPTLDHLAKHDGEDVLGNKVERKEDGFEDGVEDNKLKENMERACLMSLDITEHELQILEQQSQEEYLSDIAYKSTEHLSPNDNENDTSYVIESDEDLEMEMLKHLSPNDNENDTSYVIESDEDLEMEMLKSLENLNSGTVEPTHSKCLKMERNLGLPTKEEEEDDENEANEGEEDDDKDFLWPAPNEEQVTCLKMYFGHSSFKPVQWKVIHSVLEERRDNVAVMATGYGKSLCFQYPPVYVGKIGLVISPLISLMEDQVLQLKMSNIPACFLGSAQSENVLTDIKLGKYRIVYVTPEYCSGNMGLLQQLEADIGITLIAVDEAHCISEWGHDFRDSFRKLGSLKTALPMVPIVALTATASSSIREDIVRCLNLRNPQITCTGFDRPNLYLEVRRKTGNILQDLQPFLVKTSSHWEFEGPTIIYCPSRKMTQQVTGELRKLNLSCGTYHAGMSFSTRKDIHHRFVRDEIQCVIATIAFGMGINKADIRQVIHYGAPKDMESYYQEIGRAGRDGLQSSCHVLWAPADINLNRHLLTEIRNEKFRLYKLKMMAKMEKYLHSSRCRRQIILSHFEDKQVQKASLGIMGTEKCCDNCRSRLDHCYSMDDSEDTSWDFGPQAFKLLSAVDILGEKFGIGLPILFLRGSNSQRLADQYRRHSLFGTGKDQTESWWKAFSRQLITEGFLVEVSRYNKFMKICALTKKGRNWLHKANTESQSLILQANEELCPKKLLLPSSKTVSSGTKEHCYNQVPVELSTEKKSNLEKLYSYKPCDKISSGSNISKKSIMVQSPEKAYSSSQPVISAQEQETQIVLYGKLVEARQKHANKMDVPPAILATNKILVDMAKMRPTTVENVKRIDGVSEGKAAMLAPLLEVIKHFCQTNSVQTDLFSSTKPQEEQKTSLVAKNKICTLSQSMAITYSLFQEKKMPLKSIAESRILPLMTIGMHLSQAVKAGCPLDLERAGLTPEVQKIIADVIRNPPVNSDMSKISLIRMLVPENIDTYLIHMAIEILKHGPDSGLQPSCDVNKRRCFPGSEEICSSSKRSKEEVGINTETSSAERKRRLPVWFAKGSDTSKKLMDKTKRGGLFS

Row | AC50 [1] [µM] | AC50 [2] [µM] | SMILES | AC50 [3] [nM] | AC50 [4] [nM]
1 | 0.005 to 0.015 |  | C=CC(=O)N1CCc2nn(-c3ccc(C4CC4)cc3)c3c2C(C1)N(C(=O)c1cnc(Br)cc1C)CC3 (stereo not shown) [Compound 113, 1-(5-(6-bromo-4-methylnicotinoyl)-2-(4-cyclopropylphenyl)-2,3,4,5,5a,6,8,9-octahydro-7H-1,2,5,7-tetraazabenzo[cd]azulen-7-yl)prop-2-en-1-one] |  | 
2 | > 0.055 |  | C=CC(=O)N1CCc2nn(-c3ccc(C4CC4)cc3)c3c2C(C1)N(C(=O)c1csc(S(N)(=O)=O)c1)CC3 (stereo not shown) [Compound 125, 4-(7-acryloyl-2-(4-cyclopropylphenyl)-3,4,5,5a,6,7,8,9-octahydro-2H-1,2,5,7-tetraazabenzo[cd]azulene-5-carbonyl)thiophene-2-sulfonamide] |  | 
3 | 0.015 to 0.055 |  | C=CC(=O)N1CCc2nn(-c3ccc(C4CC4)cc3)c3c2C(C1)N(C(=O)c1cnc2[nH]c(C(F)(F)F)nc2c1)CC3 (stereo not shown) [Compound 124, 1-(2-(4-cyclopropylphenyl)-5-(2-(trifluoromethyl)-3H-imidazo[4,5-b]pyridine-6-carbonyl)-2,3,4,5,5a,6,8,9-octahydro-7H-1,2,5,7-tetraazabenzo[cd]azulen-7-yl)prop-2-en-1-one] |  | 
4 | 0.005 to 0.015 |  | C=CC(=O)N1CCc2nn(-c3ccc(C4CC4)cc3)c3c2C(C1)N(C(=O)c1ccc(Br)nn1)CC3 (stereo not shown) [Compound 108, 1-(5-(6-bromopyridazine-3-carbonyl)-2-(4-cyclopropylphenyl)-2,3,4,5,5a,6,8,9-octahydro-7H-1,2,5,7-tetraazabenzo[cd]azulen-7-yl)prop-2-en-1-one] |  | 
5 |  | 0.005 to 0.015 | C=CC(=O)N1CCc2nn(-c3ccc(C(C)C)cc3)c3c2C(C1C)N(C(=O)c1cnc(C(F)(F)F)cc1N)CC3 (stereo not shown) [Compound 168, 1-(5-(4-amino-6-(trifluoromethyl)nicotinoyl)-2-(4-isopropylphenyl)-6-methyl-2,3,4,5,5a,6,8,9-octahydro-7H-1,2,5,7-tetraazabenzo[cd]azulen-7-yl)prop-2-en-1-one] | 1 to 100 | > 3000
6 |  | 0.005 to 0.015 | C=CC(=O)N1CCc2nn(-c3ccc(C4CC4)c(F)c3O)c3c2C(C1)N(C(=O)c1cnc(C(F)(F)F)c(F)c1N)CC3 (stereo not shown) [Compound 218, 1-(5-(4-amino-5-fluoro-6-(trifluoromethyl)nicotinoyl)-2-(4-cyclopropyl-3-fluoro-2-hydroxyphenyl)-2,3,4,5,5a,6,8,9-octahydro-7H-1,2,5,7-tetraazabenzo[cd]azulen-7-yl)prop-2-en-1-one] | 1 to 100 | > 3000
7 |  | 0.005 to 0.015 | C=CC(=O)N1CC(C)c2nn(-c3ccc(C4CC4)cc3O)c3c2C(C1)N(C(=O)c1cnc(Br)cc1N)CC3 (stereo not shown) [Compound 190, 1-(5-(4-amino-6-bromonicotinoyl)-2-(4-cyclopropyl-2-hydroxyphenyl)-9-methyl-2,3,4,5,5a,6,8,9-octahydro-7H-1,2,5,7-tetraazabenzo[cd]azulen-7-yl)prop-2-en-1-one] | 1 to 100 | > 3000
8 |  | 0.015 to 0.055 | C=CC(=O)N1CCc2nn(-c3ccc(C4CC4)cc3O)c3c2C(C1)N(C(=O)c1ccc(C(F)(F)F)c(F)c1N)CC3 (stereo not shown) [Compound 259, 1-(5-(2-amino-3-fluoro-4-(trifluoromethyl)benzoyl)-2-(4-cyclopropyl-2-hydroxyphenyl)-2,3,4,5,5a,6,8,9-octahydro-7H-1,2,5,7-tetraazabenzo[cd]azulen-7-yl)prop-2-en-1-one] | 1 to 100 | > 3000
9 |  | 0.015 to 0.055 | C=CC(=O)N1CC2c3c(nn(-c4ccc(C5CC5)cc4)c3CCN2C(=O)c2ccc(C(F)(F)F)cc2)C(n2ccccc2=O)C1 (stereo not shown) [Compound 231, 1-(7-acryloyl-2-(4-cyclopropylphenyl)-5-(4-(trifluoromethyl)benzoyl)-3,4,5,5a,6,7,8,9-octahydro-2H-1,2,5,7-tetraazabenzo[cd]azulen-9-yl)pyridin-2(1H)-one] | 1 to 100 | > 3000
10 |  | 0.0015 to 0.005 | C=CC(=O)N1CCc2nn(-c3ccc(C4CC4)cc3O)c3c2C(C1)N(C(=O)c1cnc(SC(F)(F)F)cc1N)CC3 (stereo not shown) [Compound 209, 1-(5-(4-amino-6-((trifluoromethyl)thio)nicotinoyl)-2-(4-cyclopropyl-2-hydroxyphenyl)-2,3,4,5,5a,6,8,9-octahydro-7H-1,2,5,7-tetraazabenzo[cd]azulen-7-yl)prop-2-en-1-one] | 1 to 100 | > 3000
11 |  | 0.0015 to 0.005 | C=CC(=O)N1CCc2nn(-c3ccc(C4CCCC4)cc3O)c3c2C(C1)N(C(=O)c1cnc(C(F)(F)F)cc1N)CC3 (stereo not shown) [Compound 217, 1-(5-(4-amino-6-(trifluoromethyl)nicotinoyl)-2-(4-cyclopentyl-2-hydroxyphenyl)-2,3,4,5,5a,6,8,9-octahydro-7H-1,2,5,7-tetraazabenzo[cd]azulen-7-yl)prop-2-en-1-one] | 1 to 100 | > 3000
12 |  | > 0.055 | C=CC(=O)N1CC(OC2(COC)CC2)c2nn(-c3ccc(C4CC4)cc3)c3c2C(C1)N(C(=O)c1ccc(C(F)(F)F)nc1)CC3 (stereo not shown) [Compound 235, 1-(2-(4-cyclopropylphenyl)-9-(1-(methoxymethyl)cyclopropoxy)-5-(6-(trifluoromethyl)nicotinoyl)-2,3,4,5,5a,6,8,9-octahydro-7H-1,2,5,7-tetraazabenzo[cd]azulen-7-yl)prop-2-en-1-one] | 100 to 250 | > 3000
13 |  | 0.015 to 0.055 | C=CC(=O)N1CCc2nn(-c3ccc(C4CC4)cc3)c3c2C(C1)N(C(=O)c1cnc(C(F)(F)F)cc1NC)CC3 (stereo not shown) [Compound 179, 1-(2-(4-cyclopropylphenyl)-5-(4-(methylamino)-6-(trifluoromethyl)nicotinoyl)-2,3,4,5,5a,6,8,9-octahydro-7H-1,2,5,7-tetraazabenzo[cd]azulen-7-yl)prop-2-en-1-one] | 100 to 250 | > 3000
14 |  | 0.015 to 0.055 | C=CC(=O)N1CCc2nn(-c3ccc(C4CCC4)cc3)c3c2C(C1)N(C(=O)c1cnc2c(C(F)(F)F)nn(C)c2c1)CC3 (stereo not shown) [Compound 185, 1-(2-(4-cyclobutylphenyl)-5-(1-methyl-3-(trifluoromethyl)-1H-pyrazolo[4,3-b]pyridine-6-carbonyl)-2,3,4,5,5a,6,8,9-octahydro-7H-1,2,5,7-tetraazabenzo[cd]azulen-7-yl)prop-2-en-1-one] | 1 to 100 | 1000 to 3000
15 |  | 0.015 to 0.055 | C=CC(=O)N1CCc2nn(-c3ccc(C(C)C)c(F)c3O)c3c2C(C1)N(C(=O)c1cnc(C(F)(F)F)c(O)c1)CC3 (stereo not shown) [Compound 64, 1-(2-(3-fluoro-2-hydroxy-4-isopropylphenyl)-5-(5-hydroxy-6-(trifluoromethyl)nicotinoyl)-2,3,4,5,5a,6,8,9-octahydro-7H-1,2,5,7-tetraazabenzo[cd]azulen-7-yl)prop-2-en-1-one] | 1 to 100 | > 3000
16 |  | 0.005 to 0.015 | C=CC(=O)N1CCc2nn(-c3ccc(C4CC4)cc3O)c3c2C(C1)N(C(=O)c1ccc(C(F)(F)F)nc1)CC3 (stereo not shown) [Compound 213, 1-(2-(4-cyclopropyl-2-hydroxyphenyl)-5-(6-(trifluoromethyl)nicotinoyl)-2,3,4,5,5a,6,8,9-octahydro-7H-1,2,5,7-tetraazabenzo[cd]azulen-7-yl)prop-2-en-1-one] | 1 to 100 | > 3000
17 |  | 0.005 to 0.015 | C=CC(=O)N1CCc2nn(-c3ccc(C4CCC4)cc3O)c3c2C(C1)N(C(=O)c1ccc(C(F)(F)F)nc1N)CC3 (stereo not shown) [Compound 76, 1-(5-(2-amino-6-(trifluoromethyl)nicotinoyl)-2-(4-cyclobutyl-2-hydroxyphenyl)-2,3,4,5,5a,6,8,9-octahydro-7H-1,2,5,7-tetraazabenzo[cd]azulen-7-yl)prop-2-en-1-one] | 1 to 100 | > 3000
18 |  | 0.0015 to 0.005 | C=CC(=O)N1CCc2nn(-c3ccc(C4CC4)cc3O)c3c2C(C1)N(C(=O)c1cnc(Cl)c(F)c1N)CC3 (stereo not shown) [Compound 210, 1-(5-(4-amino-6-chloro-5-fluoronicotinoyl)-2-(4-cyclopropyl-2-hydroxyphenyl)-2,3,4,5,5a,6,8,9-octahydro-7H-1,2,5,7-tetraazabenzo[cd]azulen-7-yl)prop-2-en-1-one] | 1 to 100 | > 3000
